Laboratory results taken from patent US20260250318A1, “COMPOSITIONS AND METHODS FOR CROSSING THE BLOOD BRAIN BARRIER” (VOYAGER THERAPEUTICS, INC., priority 2022, published 2026).

Columns and labels:
[1] = tested on: brains, heart, liver, muscle, and DRG of the NHPs; experiment: Maturation of TTM-001 and TTM-002 capsids, NGS enrichment in NHP tissues; type: in vivo; conditions: relative to AAV9 control
In short: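 Variants carry mutations within and flanking the loop IV peptide insert: positions 450–466 were triplet-randomized, while positions 449–466 received low-frequency point mutations. The combined pool went into two NHPs, and each peptide was scored by NGS enrichment ratio against AAV9.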

brain = experiment: Matured TTM-001 and TTM-002 variants, NGS enrichment in mouse brain; type: in vivo, mice; conditions: relative to AAV9 control
[2] = NGS fold-enrichment of RNA, NHP brain
[3] = NGS fold-enrichment, DRG of NHPs
[4] = NGS fold-enrichment, NHP liver DNA
[5] = NGS fold-enrichment, NHP liver RNA
[6] = NGS fold-enrichment, NHP muscle
[7] = NGS fold-enrichment, RNA, brain of NHPs
[8] = NGS fold-enrichment, heart of NHPs
[9] = NGS fold-enrichment, liver DNA of NHPs
[10] = NGS fold-enrichment, liver RNA of NHPs
[11] = NGS fold-enrichment, muscle of NHPs
[12] = NGS fold-enrichment, brain of mice
[13] = NGS fold-enrichment, mouse brain
[14] = NGS fold-enrichment of matured AAV capsid variants, NHP brain, RNA

## KTENISGSPHSKAQNQQT
[1]; [2]
  Fold Enrichment relative to AAV9, Brain (NHP): 76.072 fold
[1]; [3]
  Fold Enrichment relative to AAV9, DRG (NHP): 0.000 fold
[1]; NGS fold-enrichment, NHP DRG
  Fold Enrichment relative to AAV9, DRG (NHP): 0.000 fold
[1]; NGS fold-enrichment, NHP heart
  Fold Enrichment relative to AAV9, Heart (NHP): 0.000 fold
[1]; [4]
  Fold Enrichment relative to AAV9, Liver DNA (NHP): 0.132 fold
[1]; [5]
  Fold Enrichment relative to AAV9, Liver RNA (NHP): 0.115 fold
[1]; [6]
  Fold Enrichment relative to AAV9, Muscle (NHP): 0.000 fold
[1]; [7]
  Fold Enrichment relative to AAV9, Brain (NHP): 76.072 fold
[1]; [8]
  Fold Enrichment relative to AAV9, Heart (NHP): 0.000 fold
[1]; [9]
  Fold Enrichment relative to AAV9, Liver DNA (NHP): 0.132 fold
[1]; [10]
  Fold Enrichment relative to AAV9, Liver RNA (NHP): 0.115 fold
[1]; [11]
  Fold Enrichment relative to AAV9, Muscle (NHP): 0.000 fold
brain; [12]
  Fold Enrichment relative to AAV9, Brain (Mouse): 83.118 fold
brain; [13]
  Fold Enrichment relative to AAV9, Brain (Mouse): 83.118 fold

## KTENKSGSPHSKAQNQQT
[1]; [2]
  Fold Enrichment relative to AAV9, Brain (NHP): 103.854 fold
[1]; NGS fold-enrichment, NHP DRG
  Fold Enrichment relative to AAV9, DRG (NHP): 0.000 fold
[1]; NGS fold-enrichment, NHP heart
  Fold Enrichment relative to AAV9, Heart (NHP): 0.037 fold
[1]; [4]
  Fold Enrichment relative to AAV9, Liver DNA (NHP): 0.119 fold
[1]; [5]
  Fold Enrichment relative to AAV9, Liver RNA (NHP): 0.000 fold
[1]; [6]
  Fold Enrichment relative to AAV9, Muscle (NHP): 0.000 fold
brain; [13]
  Fold Enrichment relative to AAV9, Brain (Mouse): 31.182 fold

## KTENLSGSPHSKAQNQQT
[1]; [3]
  Fold Enrichment relative to AAV9, DRG (NHP): 0.070 fold
[1]; [7]
  Fold Enrichment relative to AAV9, Brain (NHP): 70.303 fold
[1]; [8]
  Fold Enrichment relative to AAV9, Heart (NHP): 0.000 fold
[1]; [9]
  Fold Enrichment relative to AAV9, Liver DNA (NHP): 0.470 fold
[1]; [10]
  Fold Enrichment relative to AAV9, Liver RNA (NHP): 0.395 fold
[1]; [11]
  Fold Enrichment relative to AAV9, Muscle (NHP): 0.000 fold
brain; [12]
  Fold Enrichment relative to AAV9, Brain (Mouse): 107.385 fold

## KTENMSGSPHSKAQNQQT
[1]; [2]
  Fold Enrichment relative to AAV9, Brain (NHP): 89.247 fold
[1]; [3]
  Fold Enrichment relative to AAV9, DRG (NHP): 0.000 fold
[1]; NGS fold-enrichment, NHP DRG
  Fold Enrichment relative to AAV9, DRG (NHP): 0.000 fold
[1]; NGS fold-enrichment, NHP heart
  Fold Enrichment relative to AAV9, Heart (NHP): 0.000 fold
[1]; [4]
  Fold Enrichment relative to AAV9, Liver DNA (NHP): 0.260 fold
[1]; [5]
  Fold Enrichment relative to AAV9, Liver RNA (NHP): 0.000 fold
[1]; [6]
  Fold Enrichment relative to AAV9, Muscle (NHP): 0.000 fold
[1]; [7]
  Fold Enrichment relative to AAV9, Brain (NHP): 89.247 fold
[1]; [8]
  Fold Enrichment relative to AAV9, Heart (NHP): 0.000 fold
[1]; [9]
  Fold Enrichment relative to AAV9, Liver DNA (NHP): 0.260 fold
[1]; [10]
  Fold Enrichment relative to AAV9, Liver RNA (NHP): 0.000 fold
[1]; [11]
  Fold Enrichment relative to AAV9, Muscle (NHP): 0.000 fold
brain; [12]
  Fold Enrichment relative to AAV9, Brain (Mouse): 130.568 fold
brain; [13]
  Fold Enrichment relative to AAV9, Brain (Mouse): 130.568 fold

## KTENTSGSPHSKAQNQQT
[1]; [3]
  Fold Enrichment relative to AAV9, DRG (NHP): 0.000 fold
[1]; [7]
  Fold Enrichment relative to AAV9, Brain (NHP): 74.061 fold
[1]; [8]
  Fold Enrichment relative to AAV9, Heart (NHP): 0.000 fold
[1]; [9]
  Fold Enrichment relative to AAV9, Liver DNA (NHP): 0.730 fold
[1]; [10]
  Fold Enrichment relative to AAV9, Liver RNA (NHP): 0.233 fold
[1]; [11]
  Fold Enrichment relative to AAV9, Muscle (NHP): 0.218 fold
brain; [12]
  Fold Enrichment relative to AAV9, Brain (Mouse): 96.249 fold

## KTENVSGSPHSKAQNQQT
[1]; [2]
  Fold Enrichment relative to AAV9, Brain (NHP): 88.506 fold
[1]; [3]
  Fold Enrichment relative to AAV9, DRG (NHP): 0.000 fold
[1]; NGS fold-enrichment, NHP DRG
  Fold Enrichment relative to AAV9, DRG (NHP): 0.000 fold
[1]; NGS fold-enrichment, NHP heart
  Fold Enrichment relative to AAV9, Heart (NHP): 0.000 fold
[1]; [4]
  Fold Enrichment relative to AAV9, Liver DNA (NHP): 0.112 fold
[1]; [5]
  Fold Enrichment relative to AAV9, Liver RNA (NHP): 0.964 fold
[1]; [6]
  Fold Enrichment relative to AAV9, Muscle (NHP): 0.000 fold
[1]; [7]
  Fold Enrichment relative to AAV9, Brain (NHP): 88.506 fold
[1]; [8]
  Fold Enrichment relative to AAV9, Heart (NHP): 0.000 fold
[1]; [9]
  Fold Enrichment relative to AAV9, Liver DNA (NHP): 0.112 fold
[1]; [10]
  Fold Enrichment relative to AAV9, Liver RNA (NHP): 0.964 fold
[1]; [11]
  Fold Enrichment relative to AAV9, Muscle (NHP): 0.000 fold
brain; [12]
  Fold Enrichment relative to AAV9, Brain (Mouse): 108.591 fold
brain; [13]
  Fold Enrichment relative to AAV9, Brain (Mouse): 108.591 fold

## KTEPMSGSPHSKAQNQQT
[1]; [14]
  Fold Enrichment relative to AAV9, Brain (NHP): 50.960 fold
[1]; NHP DRG
  Fold Enrichment relative to AAV9, DRG (NHP): 0.203 fold
[1]; NHP heart
  Fold Enrichment relative to AAV9, Heart (NHP): 0.000 fold
[1]; NHP liver, DNA
  Fold Enrichment relative to AAV9, Liver DNA (NHP): 0.415 fold
[1]; NHP liver, RNA
  Fold Enrichment relative to AAV9, Liver RNA (NHP): 1.816 fold
[1]; NHP muscle
  Fold Enrichment relative to AAV9, Muscle (NHP): 0.000 fold
brain; mouse brain
  Fold Enrichment relative to AAV9, Brain (Mouse): 126.322 fold

## KTEPTSGSPHSKAQNQQT
[1]; [14]
  Fold Enrichment relative to AAV9, Brain (NHP): 56.134 fold
[1]; NHP DRG
  Fold Enrichment relative to AAV9, DRG (NHP): 0.000 fold
[1]; NHP heart
  Fold Enrichment relative to AAV9, Heart (NHP): 0.000 fold
[1]; NHP liver, DNA
  Fold Enrichment relative to AAV9, Liver DNA (NHP): 0.527 fold
[1]; NHP liver, RNA
  Fold Enrichment relative to AAV9, Liver RNA (NHP): 0.061 fold
[1]; NHP muscle
  Fold Enrichment relative to AAV9, Muscle (NHP): 0.000 fold
brain; mouse brain
  Fold Enrichment relative to AAV9, Brain (Mouse): 143.397 fold

## KTEQTSGSPHSKAQNQQT
[1]; [14]
  Fold Enrichment relative to AAV9, Brain (NHP): 56.683 fold
[1]; NHP DRG
  Fold Enrichment relative to AAV9, DRG (NHP): 0.000 fold
[1]; NHP heart
  Fold Enrichment relative to AAV9, Heart (NHP): 0.045 fold
[1]; NHP liver, DNA
  Fold Enrichment relative to AAV9, Liver DNA (NHP): 0.430 fold
[1]; NHP liver, RNA
  Fold Enrichment relative to AAV9, Liver RNA (NHP): 0.792 fold
[1]; NHP muscle
  Fold Enrichment relative to AAV9, Muscle (NHP): 0.000 fold
brain; mouse brain
  Fold Enrichment relative to AAV9, Brain (Mouse): 59.360 fold

## KTEQVSGSPHSKAQNQQT
[1]; [14]
  Fold Enrichment relative to AAV9, Brain (NHP): 58.247 fold
[1]; NHP DRG
  Fold Enrichment relative to AAV9, DRG (NHP): 0.000 fold
[1]; NHP heart
  Fold Enrichment relative to AAV9, Heart (NHP): 0.000 fold
[1]; NHP liver, DNA
  Fold Enrichment relative to AAV9, Liver DNA (NHP): 0.081 fold
[1]; NHP liver, RNA
  Fold Enrichment relative to AAV9, Liver RNA (NHP): 0.000 fold
[1]; NHP muscle
  Fold Enrichment relative to AAV9, Muscle (NHP): 0.000 fold
brain; mouse brain
  Fold Enrichment relative to AAV9, Brain (Mouse): 88.487 fold

## KTERASGSPHSKAQNQQT
[1]; [2]
  Fold Enrichment relative to AAV9, Brain (NHP): 103.669 fold
[1]; [3]
  Fold Enrichment relative to AAV9, DRG (NHP): 0.000 fold
[1]; NGS fold-enrichment, NHP DRG
  Fold Enrichment relative to AAV9, DRG (NHP): 0.000 fold
[1]; NGS fold-enrichment, NHP heart
  Fold Enrichment relative to AAV9, Heart (NHP): 0.000 fold
[1]; [4]
  Fold Enrichment relative to AAV9, Liver DNA (NHP): 0.070 fold
[1]; [5]
  Fold Enrichment relative to AAV9, Liver RNA (NHP): 0.127 fold
[1]; [6]
  Fold Enrichment relative to AAV9, Muscle (NHP): 0.000 fold
[1]; [7]
  Fold Enrichment relative to AAV9, Brain (NHP): 103.669 fold
[1]; [8]
  Fold Enrichment relative to AAV9, Heart (NHP): 0.000 fold
[1]; [9]
  Fold Enrichment relative to AAV9, Liver DNA (NHP): 0.070 fold
[1]; [10]
  Fold Enrichment relative to AAV9, Liver RNA (NHP): 0.127 fold
[1]; [11]
  Fold Enrichment relative to AAV9, Muscle (NHP): 0.000 fold
brain; [12]
  Fold Enrichment relative to AAV9, Brain (Mouse): 115.550 fold
brain; [13]
  Fold Enrichment relative to AAV9, Brain (Mouse): 115.550 fold

## KTERGSGSPHSKAQNQQT
[1]; [14]
  Fold Enrichment relative to AAV9, Brain (NHP): 53.475 fold
[1]; NHP DRG
  Fold Enrichment relative to AAV9, DRG (NHP): 0.000 fold
[1]; NHP heart
  Fold Enrichment relative to AAV9, Heart (NHP): 0.030 fold
[1]; NHP liver, DNA
  Fold Enrichment relative to AAV9, Liver DNA (NHP): 0.175 fold
[1]; NHP liver, RNA
  Fold Enrichment relative to AAV9, Liver RNA (NHP): 1.416 fold
[1]; NHP muscle
  Fold Enrichment relative to AAV9, Muscle (NHP): 0.000 fold
brain; mouse brain
  Fold Enrichment relative to AAV9, Brain (Mouse): 85.368 fold

## KTERISGSPHSKAQNQQT
[1]; [2]
  Fold Enrichment relative to AAV9, Brain (NHP): 103.692 fold
[1]; [3]
  Fold Enrichment relative to AAV9, DRG (NHP): 0.000 fold
[1]; NGS fold-enrichment, NHP DRG
  Fold Enrichment relative to AAV9, DRG (NHP): 0.000 fold
[1]; NGS fold-enrichment, NHP heart
  Fold Enrichment relative to AAV9, Heart (NHP): 0.000 fold
[1]; [4]
  Fold Enrichment relative to AAV9, Liver DNA (NHP): 0.370 fold
[1]; [5]
  Fold Enrichment relative to AAV9, Liver RNA (NHP): 0.062 fold
[1]; [6]
  Fold Enrichment relative to AAV9, Muscle (NHP): 0.000 fold
[1]; [7]
  Fold Enrichment relative to AAV9, Brain (NHP): 103.692 fold
[1]; [8]
  Fold Enrichment relative to AAV9, Heart (NHP): 0.000 fold
[1]; [9]
  Fold Enrichment relative to AAV9, Liver DNA (NHP): 0.370 fold
[1]; [10]
  Fold Enrichment relative to AAV9, Liver RNA (NHP): 0.062 fold
[1]; [11]
  Fold Enrichment relative to AAV9, Muscle (NHP): 0.000 fold
brain; [12]
  Fold Enrichment relative to AAV9, Brain (Mouse): 89.637 fold
brain; [13]
  Fold Enrichment relative to AAV9, Brain (Mouse): 89.637 fold
